Reference: PubChem BioAssay AID328 (DTP/NCI, 2004)
Where “and” joins values, the source holds several entries; their conditions need not be identical. Equal values may be shown once. Toxic doses and inconclusive results are not listed.

System: BDF1 mice, P388 leukemia ip, median survival T/C
Experiment: NCI In Vivo Anticancer Drug Screen. Data for tumor model P388 Leukemia (intraperitoneal) in B6D2F1 (BDF1) mice
Details: endpoint: median survival time, higher = longer survival
Outline: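 Survival ratio, drug arm over vehicle arm, in mice with a transplanted tumour.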

[1] = dose: 50.0 mg/kg/injection, schedule: Q04DX003 (ip), vehicle: saline with Tween-80
[2] = dose: 12.5 mg/kg/injection, schedule: Q01DX009 (ip), vehicle: saline
[3] = dose: 25.0 mg/kg/injection, schedule: Q01DX009 (ip), vehicle: saline
[4] = dose: 50.0 mg/kg/injection, schedule: Q01DX009 (ip), vehicle: saline
[5] = dose: 100.0 mg/kg/injection, schedule: Q04DX003 (ip), vehicle: saline

CSC(=S)NNC(=O)c1ccc([N+](=O)[O-])cc1
T/C (dose: 3.13 mg/kg/injection, schedule: Q04DX003 (ip), vehicle: saline sonified): 90 % of control
T/C (dose: 6.25 mg/kg/injection, schedule: Q04DX003 (ip), vehicle: saline sonified): 100 % of control
T/C (dose: 12.5 mg/kg/injection, schedule: Q04DX003 (ip), vehicle: saline sonified): 95 % of control

CCCC(=O)C(CC)C(O)(C(F)(F)F)C(F)(F)F (configuration not stated)
T/C [1]: 100 % of control
T/C (dose: 100.0 mg/kg/injection, schedule: Q04DX003 (ip), vehicle: saline with Tween-80): 104 % of control
T/C (dose: 200.0 mg/kg/injection, schedule: Q04DX003 (ip), vehicle: saline with Tween-80): 118 % of control

CN(C)CC/C=C1\c2ccccc2C(C)(C)c2ccc(Cl)cc21
T/C (dose: 6.0 mg/kg/injection, schedule: Q04DX003 (ip), vehicle: saline with Tween-80): 95 % of control
T/C (dose: 6.25 mg/kg/injection, schedule: Q01DX009 (ip), vehicle: Klucel (hydroxypropylcellulose) (HPC)): 100 % of control
T/C (dose: 11.0 mg/kg/injection, schedule: Q04DX003 (ip), vehicle: saline with Tween-80): 104 % of control
T/C (dose: 12.5 mg/kg/injection, schedule: Q01DX009 (ip), vehicle: Klucel (hydroxypropylcellulose) (HPC)): 111 % of control
T/C (dose: 16.5 mg/kg/injection, schedule: Q01DX009 (ip), vehicle: Klucel (hydroxypropylcellulose) (HPC)): 90 % of control and 100 % of control
T/C (dose: 22.0 mg/kg/injection, schedule: Q04DX003 (ip), vehicle: saline with Tween-80): 104 % of control
T/C (dose: 25.0 mg/kg/injection, schedule: Q01DX009 (ip), vehicle: Klucel (hydroxypropylcellulose) (HPC)): 88 % of control and 100 % of control
T/C (dose: 33.0 mg/kg/injection, schedule: Q04DX003 (ip), vehicle: saline with Tween-80): 100 % of control and 104 % of control
T/C (dose: 37.5 mg/kg/injection, schedule: Q01DX009 (ip), vehicle: Klucel (hydroxypropylcellulose) (HPC)): 90 % of control and 92 % of control
T/C [1]: 110 % of control and 112 % of control
T/C (dose: 55.0 mg/kg/injection, schedule: Q01DX009 (ip), vehicle: Klucel (hydroxypropylcellulose) (HPC)): 95 % of control
T/C (dose: 75.0 mg/kg/injection, schedule: Q04DX003 (ip), vehicle: saline with Tween-80): 115 % of control and 120 % of control
T/C (dose: 85.0 mg/kg/injection, schedule: Q01DX009 (ip), vehicle: Klucel (hydroxypropylcellulose) (HPC)): 87 % of control
T/C (dose: 125.0 mg/kg/injection, schedule: Q01DX009 (ip), vehicle: Klucel (hydroxypropylcellulose) (HPC)): 95 % of control

Nc1ncnc2c1ncn2C1OC(COP(=O)(O)O)C(O)C1O (configuration not stated)
T/C (dose: 18.8 mg/kg/injection, schedule: Q03HX016 (ip), vehicle: saline): 121 % of control
T/C (dose: 100.0 mg/kg/injection, schedule: Q03HX016 (ip), vehicle: saline): 157 % of control
T/C (dose: 100.0 mg/kg/injection, schedule: Q03HX024 (ip), vehicle: saline): 151 % of control
T/C (dose: 150.0 mg/kg/injection, schedule: Q03HX016 (ip), vehicle: saline): 169 % of control
T/C (dose: 150.0 mg/kg/injection, schedule: Q03HX024 (ip), vehicle: saline): 178 % of control

CC(CCCSC(=N)N)SC(=N)N (configuration not stated)
T/C [2]: 103 % of control
T/C [3]: 96 % of control and 105 % of control
T/C [4]: 97 % of control and 122 % of control
T/C (dose: 100.0 mg/kg/injection, schedule: Q01DX009 (ip), vehicle: saline): 102 % of control and 103 % of control

COc1ccc(/C=C/[N+](=O)[O-])cc1O
T/C (dose: 6.25 mg/kg/injection, schedule: Q01DX009 (ip), vehicle: saline): 106 % of control
T/C [2]: 115 % of control and 121 % of control
T/C (dose: 12.5 mg/kg/injection, schedule: Q04DX003 (ip), vehicle: saline): 113 % of control
T/C [3]: 111 % of control and 121 % of control
T/C (dose: 25.0 mg/kg/injection, schedule: Q04DX003 (ip), vehicle: saline): 113 % of control
T/C [4]: 95 % of control and 123 % of control
T/C (dose: 50.0 mg/kg/injection, schedule: Q04DX003 (ip), vehicle: saline): 114 % of control and 122 % of control
T/C [5]: 114 % of control and 122 % of control

CC(CN1CC(=O)NC(=O)C1)N1CC(=O)NC(=O)C1 (configuration not stated)
T/C (dose: 3.12 mg/kg/injection, schedule: Q03HX024 (ip), vehicle: steriod suspending solution): 200 % of control
T/C (dose: 3.75 mg/kg/injection, schedule: Q01DX010 (oral), vehicle: saline with Tween-80): 109 % of control
T/C (dose: 6.25 mg/kg/injection, schedule: Q03HX024 (ip), vehicle: steriod suspending solution): 205 % of control
T/C (dose: 10.0 mg/kg/injection, schedule: Q04DX003 (ip), vehicle: Klucel (hydroxypropylcellulose) (HPC)): 117 % of control
T/C (dose: 12.5 mg/kg/injection, schedule: Q01DX009 (ip), vehicle: steriod suspending solution): 100 % of control
T/C (dose: 12.5 mg/kg/injection, schedule: Q03HX024 (ip), vehicle: steriod suspending solution): 258 % of control
T/C (dose: 15.0 mg/kg/injection, schedule: Q01DX010 (oral), vehicle: saline with Tween-80): 154 % of control
T/C (dose: 25.0 mg/kg/injection, schedule: Q03HX024 (ip), vehicle: steriod suspending solution): 211 % of control
T/C (dose: 30.0 mg/kg/injection, schedule: Q01DX010 (ip), vehicle: saline): 186 % of control
T/C (dose: 50.0 mg/kg/injection, schedule: Q01DX009 (ip), vehicle: steriod suspending solution): 164 % of control
T/C (dose: 50.0 mg/kg/injection, schedule: Q04DX002 (ip), vehicle: Klucel (hydroxypropylcellulose) (HPC)): 111 % of control
T/C (dose: 60.0 mg/kg/injection, schedule: Q01DX010 (ip), vehicle: saline): 181 % of control
T/C (dose: 100.0 mg/kg/injection, schedule: Q01DX001 (ip), vehicle: steriod suspending solution): 111 % of control
T/C (dose: 100.0 mg/kg/injection, schedule: Q01DX009 (ip), vehicle: steriod suspending solution): 111 % of control
T/C (dose: 100.0 mg/kg/injection, schedule: Q04DX002 (ip), vehicle: Klucel (hydroxypropylcellulose) (HPC)): 108 % of control
T/C (dose: 100.0 mg/kg/injection, schedule: Q04DX003 (ip), vehicle: steriod suspending solution): 176 % of control
T/C (dose: 108.0 mg/kg/injection, schedule: Q04DX003 (ip), vehicle: Klucel (hydroxypropylcellulose) (HPC)): 231 % of control
T/C (dose: 120.0 mg/kg/injection, schedule: Q01DX010 (ip), vehicle: saline): 113 % of control
T/C (dose: 144.0 mg/kg/injection, schedule: Q04DX003 (ip), vehicle: Klucel (hydroxypropylcellulose) (HPC)): 203 % of control
T/C (dose: 180.0 mg/kg/injection, schedule: Q04DX003 (ip), vehicle: Klucel (hydroxypropylcellulose) (HPC)): 287 % of control
T/C (dose: 180.0 mg/kg/injection, schedule: Q04DX003 (ip), vehicle: alkali diluted with saline): 196 % of control
T/C (dose: 200.0 mg/kg/injection, schedule: Q04DX002 (ip), vehicle: Klucel (hydroxypropylcellulose) (HPC)): 161 % of control
T/C (dose: 200.0 mg/kg/injection, schedule: Q04DX003 (ip), vehicle: Klucel (hydroxypropylcellulose) (HPC)): 100 % of control and 153 % of control and 215 % of control
T/C (dose: 200.0 mg/kg/injection, schedule: Q04DX003 (ip), vehicle: steriod suspending solution): 194 % of control
T/C (dose: 216.0 mg/kg/injection, schedule: Q04DX003 (ip), vehicle: Klucel (hydroxypropylcellulose) (HPC)): 212 % of control
T/C (dose: 240.0 mg/kg/injection, schedule: Q04DX003 (ip), vehicle: Klucel (hydroxypropylcellulose) (HPC)): 245 % of control
T/C (dose: 300.0 mg/kg/injection, schedule: Q04DX003 (ip), vehicle: alkali diluted with saline): 252 % of control
T/C (dose: 400.0 mg/kg/injection, schedule: Q01DX001 (ip), vehicle: steriod suspending solution): 152 % of control
T/C (dose: 400.0 mg/kg/injection, schedule: Q04DX002 (ip), vehicle: Klucel (hydroxypropylcellulose) (HPC)): 193 % of control and 199 % of control
T/C (dose: 400.0 mg/kg/injection, schedule: Q04DX003 (ip), vehicle: steriod suspending solution): 176 % of control
T/C (dose: 500.0 mg/kg/injection, schedule: Q04DX003 (ip), vehicle: Klucel (hydroxypropylcellulose) (HPC)): 91 % of control and 96 % of control
T/C (dose: 500.0 mg/kg/injection, schedule: Q04DX003 (ip), vehicle: alkali diluted with saline): 93 % of control
T/C (dose: 800.0 mg/kg/injection, schedule: Q01DX001 (ip), vehicle: steriod suspending solution): 94 % of control
T/C (dose: 800.0 mg/kg/injection, schedule: Q04DX003 (ip), vehicle: steriod suspending solution): 111 % of control

O=C1CCCN1C1=CC2=C(CCc3ccccc32)S(=O)(=O)O1
T/C [5]: 90 % of control
T/C (dose: 200.0 mg/kg/injection, schedule: Q04DX003 (ip), vehicle: saline): 100 % of control
T/C (dose: 400.0 mg/kg/injection, schedule: Q04DX003 (ip), vehicle: saline): 100 % of control

CCOCN(COCC)c1cccc(Cl)c1
T/C (dose: 50.0 mg/kg/injection, schedule: Q01DX009 (ip), vehicle: saline with Tween-80): 100 % of control and 115 % of control
T/C (dose: 100.0 mg/kg/injection, schedule: Q01DX009 (ip), vehicle: saline with Tween-80): 118 % of control
T/C (dose: 200.0 mg/kg/injection, schedule: Q01DX009 (ip), vehicle: saline with Tween-80): 118 % of control
